# Laboratory results reported in patent US4140707A, “Malonato platinum anti-tumor compounds” (priority 1977, dated 1979).
# What was measured:
# [1] = test system: Walker 256 Carcinosarcoma; experiment: Confirmatory antitumor activity, Walker 256 Carcinosarcoma (Table III); assay type: in vivo, Rat; settings: single injection day 1 in oil, i.p.
# Experimental: Confirmatory tests of antitumor activity against the Walker 256 Circinosarcoma in rats, and the ADJ/PC6A tumor in mice were conducted. The initial test results are shown in Table III and confirm the potent action of the compounds of the invention against these other tumor systems.
# [2] = test system: Sarcoma 180; experiment: Antitumor activity, solid Sarcoma 180 (Table I), T/C tumor weight ratio, sacrifice day 10; assay type: in vivo, female Swiss white mice
# Experimental: The compounds of the invention were tested for anti-tumor activity using our standard screening tumor, solid sarcoma 180 tumer in female Swiss white mice, following standard protocols for this testing as set by the National Cancer Institute. (Cancer Chemotherapy Rep., 25(1962)).
# For these tests an S 180 tumor taken from a sacrificed mouse was disected free of superfluous tissue and cut under sterile conditions into approximately 10 milligram size pieces. These tissue pieces were then implanted by trocar in the left axillary region, subcutaneously, in new mice. The mice were, on the average, approximately four weeks old and weighed 18-20 grams. Taking day 0 as the day of implant, the animals were sacrificed on day 10. The tumors were excised and weighed and the ratio of the weights of the tumors in mice in the treated animals to the control set of animals was obtained. This ratio, multiplied by 100, is given as the T/C ratio in Table I.
# For the first set of tests the coordination compound was freshly dissolved in sterile distilled water and injected intraperitoneally on day 1 into each of the test mice. The volume of the injection was usually 1/2 ml. In some cases, in order to get an active dose into the animal where the chemical was not soluble in this amount of solvent, a fine dispersion was prepared of the dose needed for the test. Thus, some of our test results were obtained on animals where a slurry of the compound was injected. These are so noted in Table I below. In addition, for some of the compounds, there was injected about 1 ml of solution, either in one single injection, or in 2 injections given a few hours apart of 1/2 ml each. These injections were initially given in 4 different dose levels for each new compound with 6 mice in each dose level. The tests covered a dose range from a low ineffective dose, to an upper dose level which produced some deaths within the time period of the experiment.
# [3] = test system: Sarcoma 180; experiment: Large Sarcoma 180 regressions (Table II), injection day 8, observed approximately 60 days; assay type: in vivo, female Swiss white mice; settings: single i.p. day 8, H2O solution
# Experimental: In addition to the day 1 injections described above, in a number of cases injections were delayed until day 8 of tumor growth. In these cases the tumor was usually at least larger than 1/2 gm, as estimated by palpation. The animals were then injected and observed for a period of approximately 60 days. Activity was measured by the number of animals whose tumors had regressed to the vanishing point, while still allowing the animal to survive for this time period. Such test results are described in TABLE II below.
# [4] = Hydrolysis by U.V./vis spectral and conductivity studies; assay type: physicochemical
# From the text: *U.V./via spectral and conductivity studies have shown that hydrolysis is negligible.
# [5] = 4 mg/kg, i.p. daily for days 1-10, solution in H2O
# [6] = 5 mg/kg, i.p. daily for days 1-10, solution in H2O
# [7] = 6 mg/kg, i.p. daily for days 1-10, solution in H2O
# [8] = 7 mg/kg, i.p. daily for days 1-10, solution in H2O
# [9] = 10 mg/kg, single i.p. day 1, slurry in H2O
# [10] = 15 mg/kg, single i.p. day 1, slurry in H2O
# [11] = 20 mg/kg, single i.p. day 1, slurry in H2O
# [12] = 25 mg/kg, single i.p. day 1, slurry in H2O
# [13] = 30 mg/kg, single i.p. day 1, slurry in H2O
# [14] = 50 mg/kg, single i.p. day 1, slurry in H2O
structure (smiles),measurement,setting,value
O=C(O)CC(=O)O.[NH2-].[NH2-].[Pt+2] [Malonatodiammineplatinum(II)],% Inhibition,[1]; 10 mg/kg,100%
same,Deaths,[1]; 10 mg/kg,0
same,% Inhibition,[1]; 20 mg/kg,100%
same,Deaths,[1]; 20 mg/kg,0
same,% Inhibition,[1]; 40 mg/kg,100%
same,Deaths,[1]; 40 mg/kg,0
same,Deaths,[1]; 80 mg/kg,0
same,No. of Deaths,[2]; [5],0
same,T/C,[2]; [5],54
same,No. of Deaths,[2]; [6],0
same,T/C,[2]; [6],56
same,No. of Deaths,[2]; [7],0
same,T/C,[2]; [7],23
same,No. of Deaths,[2]; [8],0
same,T/C,[2]; [8],12
same,No. of Deaths,[2]; [9],0
same,T/C,[2]; [9],76
same,No. of Deaths,[2]; [10],0
same,T/C,[2]; [10],38
same,No. of Deaths,[2]; [11],0
same,T/C,[2]; [11],64
same,No. of Deaths,[2]; [12],0
same,T/C,[2]; [12],31
same,No. of Deaths,[2]; [13],1/6
same,T/C,[2]; [13],7
same,No. of Deaths,"[2]; 40 mg/kg, single i.p. day 1, slurry in H2O",6/6
same,No. of Deaths,[2]; [14],5/6
same,T/C,[2]; [14],1
same,No. of Deaths,"[2]; 60 mg/kg, single i.p. day 1, slurry in H2O",6/6
same,Deaths,[3]; 14 mg/kg,4
same,Total Number of Regressions,[3]; 14 mg/kg,2
same,Deaths,[3]; 16 mg/kg,3
same,Total Number of Regressions,[3]; 16 mg/kg,3
same,Deaths,[3]; 18 mg/kg,2
same,Total Number of Regressions,[3]; 18 mg/kg,4
same,Deaths,[3]; 20 mg/kg,1
same,Total Number of Regressions,[3]; 20 mg/kg,5
same,hydrolysis,[4],negligible
